Legend:
[1] = Fluorescence titration with peroxynitrite; settings: saccharide free probe 2 μM; peroxynitrite 60 μM; pH 7.3 PBS
[2] = Fluorescence response to hydrogen peroxide
Protocol: The pH was adjusted from 7.30 to 8.10 using aqueous sodium hydroxide (10 N); (b) Fluorescence spectra of probe 1-D-fructose complex (probe 1, 2 μM; D-fructose, 100 mM) in the presence of hydrogen peroxide (1 mM) at pH 7.3 buffer solution. The spectra were collected at increasing reaction times with excitation at 410 nm (Ex slit: 5.0, Em slit: 5.0);
The concentration of hydrogen peroxide (H2O2) was determined from the absorption at 240 nm (ε=43.6 M^−1 cm^−1).
Since boronate-based derivatives can be oxidized to phenol by H2O2 and ONOO^−, it is important to discriminate them by fluorescence tools. Independently, the present inventors tested the responses of probe 1 and 1-D-fructose complex towards hydrogen peroxide (FIG. 7). With the free boronic acid system, the fluorescence of probe 1 (2 μM) increased to F/F0=ca. 1.59 in the presence of hydrogen peroxide (100 μM) over 1 h at pH 7.30 buffer solution. When the solution was adjusted to pH 8.10, the fluorescence decreased most probably due to the decomposition of the intermediate to phenol (FIG. 7a). This is different from the process observed for the detection of ONOO^− in which boronic acid was transformed into phenol quickly and directly.
The fluorescence reaction of 1-D-fructose complex towards ONOO^− amd H2O2 at pH 5.0 buffer solution in order to mimic the acidic conditions found in cancer cells (FS5) was also studied. […]

[3] = UV-Vis absorption spectra; format: physicochemical
Protocol: While the presence of ONOO^− (100 μM), a new peak (A=0.021) at 360 nm developed due to the formation of phenol.

[4] = pH titration of fluorescence intensity; format: physicochemical; settings: probe 2 μM
Protocol: As shown by FIG. 2, the fluorescence intensity of the probe 1 decreased at pH values above 8.0. […] Thus, the probe can be expected to work well under physiological conditions (pH 7.30, PBS buffer). In the presence of D-fructose (100 mM), the fluorescence of the formed 1-D-fructose complex increases due to the enhanced N—B interaction at different pH values. The fluorescence of 1-D-fructose complex decreases over a pH range of 3-11.

[5] = Fluorescence response to D-fructose binding; settings: probe 2 μM; D-fructose 100 mM; pH 7.3 buffer
Protocol: (a) Fluorescence spectra of probe 1 (2 μM) and then addition of D-fructose (100 mM). After addition of D-fructose, the mixtures were stirred for 10 min; (b) Probe 1-D-fructose complex (probe 1, 2 μM; D-fructose, 100 mM) in different concentration of ONOO^−. After addition of peroxynitrite, the mixtures were stirred for 5 min;
The saccharide-boronic acid complexes were formed by mixing free boronic acid (2 μM) with D-fructose (100 mM) for 10 min in situ.
In the case of probe 1, a significant “off-on” signal response is seen on binding with D-fructose due to an inhibition of PET mechanism. From FIG. 3a, the maximum fluorescence intensity of probe 1 (2 μM, λem=525 nm) is increased two-fold in the presence of D-fructose (100 mM) at pH 7.3 buffer solution.

SMILES: CN(CCNc1ccc2c3c(cccc13)C(=O)N(CCOCCO)C2=O)Cc1ccccc1B(O)O [probe 1]
- F/F0 [1]: ca. 0.10
- F/F0 ([2]; free boronic acid probe 2 μM, hydrogen peroxide 100 μM over 1 h, pH 7.30 buffer): ca. 1.59
- fluorescence after adjusting the solution to pH 8.10 ([2]; probe 2 μM after H2O2 100 μM, pH adjusted from 7.30 to 8.10): decreased
- maximum absorption A at 440 nm ([3]; free boronic acid probe 2 μM): 0.026
- absorption A of new peak at 360 nm ([3]; in presence of ONOO− 100 μM): 0.021
- absorption A at the maximum absorption wavelength ([3]; probe 2 μM with D-fructose 100 mM): 0.019
- pH effect on fluorescence intensity ([4]; pH range between 3.0 and 8.0): minimal effect
- pH effect on fluorescence intensity ([4]; pH values above 8.0): decreased
- increase of maximum fluorescence intensity (λem=525 nm) in presence of D-fructose [5]: two-fold

Source: US20170059573A1, “METHOD OF DETECTING PEROXYNITRITE USING A COMPLEX OF A SACCHARIDE AND AN ARYLBORONATE-BASED FLUORESCENT PROBE” (UNIVERSITY OF BATH, priority 2014, published 2017)
